Laboratory results as given in ChEMBL document CHEMBL4680351, “Antimicrobial and cytotoxic effects of ammonium derivatives of diterpenoids steviol and isosteviol” (Bioorg Med Chem, 2021).
≈ marks a conversion by molar mass, not a printed value. Calls of active or inactive are those of the source. The calls are words filed in the database; no cut-off is given here. Non-standard residues stand in square brackets, D forms with d. Residues, ends and D or L forms follow the SMILES beside them. Orn = NCCC[C@H](N)C(=O)O

How the values were obtained:
[1] = system: Staphylococcus aureus; test: Antibacterial activity against Staphylococcus aureus MRSA-2 assessed as bacterial growth inhibition in Mueller-Hinton broth 2 measured every 24 hrs for 5 days by serial dilution method; assay type: functional; settings: MRSA-2, 120 h, time 5 day
[2] = system: Staphylococcus aureus; test: Antibacterial activity against Staphylococcus aureus MRSA-1 assessed as bacterial growth inhibition in Mueller-Hinton broth 2 measured every 24 hrs for 5 days by serial dilution method; assay type: functional; settings: MRSA-1, 120 h, time 5 day
[3] = system: PC-3; test: Cytotoxicity against human PC-3 cells assessed as reduction in cell viability by DAPI staining based assay
[4] = system: A549; test: Cytotoxicity against human A549 cells assessed as reduction in cell viability by DAPI staining based assay
[5] = system: HepG2; test: Cytotoxicity against human HepG2 cells assessed as reduction in cell viability by DAPI staining based assay
[6] = system: HeLa; test: Cytotoxicity against human HeLa cells assessed as reduction in cell viability by DAPI staining based assay
[7] = system: Staphylococcus aureus; test: Bactericidal activity against Staphylococcus aureus MRSA-1 measured every 24 hrs for 5 days by serial dilution method; assay type: functional; settings: MRSA-1, 120 h, time 5 day
[8] = Hemolytic activity against human erythrocytes after 1 hr by digital photoelectric colorimetric method; assay type: ADME, cell-based, Erythrocyte
[9] = system: Staphylococcus aureus; test: Bactericidal activity against Staphylococcus aureus 209P measured every 24 hrs for 5 days by serial dilution method; assay type: functional; settings: 120 h, time 5 day
[10] = system: Staphylococcus aureus; test: Antibacterial activity against Staphylococcus aureus 209P assessed as bacterial growth inhibition; assay type: functional
[11] = system: T98G; test: Cytotoxicity against human T98G cells assessed as reduction in cell viability by DAPI staining based assay
[12] = system: Staphylococcus aureus; test: Bactericidal activity against Staphylococcus aureus MRSA-2 measured every 24 hrs for 5 days by serial dilution method; assay type: functional; settings: MRSA-2, 120 h, time 5 day
[13] = system: WI-38; test: Cytotoxicity against human WI-38 cells assessed as reduction in cell viability by DAPI staining based assay
[14] = system: MCF7; test: Cytotoxicity against human MCF7 cells assessed as reduction in cell viability by DAPI staining based assay; assay type: functional
[15] = system: MCF7; test: Induction of apoptosis in human MCF7 cells assessed as viable cells at 10 uM after 24 hrs by annexin V-FITC and propidium iodide staining based flow cytometry (reference value: 91.42 %); assay type: functional; settings: read-out: Activity
[16] = Selectivity index, ratio of IC50 for human WI-38 cells to IC50 for human PC-3 cells; assay type: toxicity; settings: WI-38 cells versus PC-3 cells, read-out: Ratio IC50
[17] = system: MCF7; test: Induction of apoptosis in human MCF7 cells assessed as early apoptotic cells at 5 uM after 24 hrs by annexin V-FITC and propidium iodide staining based flow cytometry (reference value: 5.03 %); assay type: functional
[18] = system: MCF7; test: Induction of apoptosis in human MCF7 cells assessed as viable cells at 5 uM after 24 hrs by annexin V-FITC and propidium iodide staining based flow cytometry (reference value: 91.42 %); assay type: functional; settings: read-out: Activity
[19] = Selectivity index, ratio of IC50 for human WI-38 cells to IC50 for human HeLa cells; assay type: toxicity; settings: WI-38 cells versus HeLa cells, read-out: Ratio IC50
[20] = system: MCF7; test: Induction of apoptosis in human MCF7 cells assessed as late apoptotic cells at 5 uM after 24 hrs by annexin V-FITC and propidium iodide staining based flow cytometry (reference value: 3.4 %); assay type: functional
[21] = system: MCF7; test: Induction of mitochondrial membrane potential loss in human MCF7 cells assessed as cell population with mitochondrial membrane potential collapse at 10 uM after 24 hrs by JC-10 staining-based flow cytometric analysis (reference value: 1.05 %); assay type: functional
[22] = system: MCF7; test: Induction of apoptosis in human MCF7 cells assessed as late apoptotic cells at 10 uM after 24 hrs by annexin V-FITC and propidium iodide staining based flow cytometry (reference value: 3.4 %); assay type: functional
[23] = system: MCF7; test: Induction of apoptosis in human MCF7 cells assessed as activation of Bcl-2 at 5 uM after 24 hrs by fluorescence assay; assay type: functional, cell-based
[24] = system: MCF7; test: Induction of apoptosis in human MCF7 cells assessed as activation of caspase-8 at 5 uM after 24 hrs by fluorescence assay; assay type: functional, cell-based
[25] = Selectivity index, ratio of IC50 for human WI-38 cells to IC50 for human MCF7 cells; assay type: toxicity; settings: WI-38 cells versus MCF7 cells, read-out: Ratio IC50
[26] = system: Staphylococcus aureus; test: Bacteriostatic activity against Staphylococcus aureus MRSA-2 measured every 24 hrs for 5 days by serial dilution method relative to amoxicillin; assay type: functional; settings: time 5 day
[27] = system: MCF7; test: Induction of apoptosis in human MCF7 cells assessed as early apoptotic cells at 10 uM after 24 hrs by annexin V-FITC and propidium iodide staining based flow cytometry (reference value: 5.03 %); assay type: functional
[28] = system: Staphylococcus aureus; test: Induction of morphological changes in Staphylococcus aureus 209P assessed as cell wall damage at 3 uM by TEM analysis; assay type: functional, organism-based
[29] = system: MCF7; test: Induction of apoptosis in human MCF7 cells assessed as activation of p53 at 5 uM after 24 hrs by fluorescence assay; assay type: functional, cell-based
[30] = system: Staphylococcus aureus; test: Bacteriostatic activity against Staphylococcus aureus MRSA-2 measured every 24 hrs for 5 days by serial dilution method; assay type: functional, organism-based; settings: time 5.0 day
[31] = Selectivity index, ratio of IC50 for human WI-38 cells to IC50 for human A549 cells; assay type: toxicity; settings: WI-38 cells versus A549 cells, read-out: Ratio IC50
[32] = system: Staphylococcus aureus; test: Induction of morphological changes in Staphylococcus aureus 209P assessed as cell lysis at 3 uM by TEM analysis; assay type: functional, organism-based
[33] = system: Staphylococcus aureus; test: Induction of morphological changes in Staphylococcus aureus 209P assessed as change in cytoplasmic content at 3 uM by TEM analysis; assay type: functional, organism-based
[34] = system: Staphylococcus aureus; test: Induction of morphological changes in Staphylococcus aureus 209P assessed as cytoplasmic disintegration at 3 uM by TEM analysis; assay type: functional, organism-based
[35] = system: MCF7; test: Induction of apoptosis in human MCF7 cells assessed as activation of caspase-9 at 5 uM after 24 hrs by fluorescence assay relative to control; assay type: functional
[36] = Selectivity index, ratio of IC50 for human WI-38 cells to IC50 for human T98G cells; assay type: toxicity; settings: WI-38 cells versus T98G cells, read-out: Ratio IC50
[37] = system: Cell membrane; test: Induction of cytoplasmic membrane damage in Staphylococcus aureus 209P assessed as crystal violet absorption at 6 uM after 30 mins by crystal violet staining based microplate reader analysis (reference value: […] %); assay type: subcellular
[38] = system: MCF7; test: Induction of apoptosis in human MCF7 cells assessed as activation of Bad at 5 uM after 24 hrs by fluorescence assay; assay type: functional, cell-based
[39] = system: Cell membrane; test: Induction of cytoplasmic membrane damage in Staphylococcus aureus 209P assessed as crystal violet absorption at 0.7 uM after 30 mins by crystal violet staining based microplate reader analysis (reference value: […] %); assay type: subcellular
[40] = system: Cell membrane; test: Induction of cytoplasmic membrane damage in Staphylococcus aureus 209P assessed as crystal violet absorption at 3 uM after 30 mins by crystal violet staining based microplate reader analysis (reference value: […] %); assay type: subcellular
[41] = system: MCF7; test: Induction of apoptosis in human MCF7 cells assessed as activation of JNK at 5 uM after 24 hrs by fluorescence assay; assay type: functional, cell-based
[42] = system: Cell membrane; test: Induction of cytoplasmic membrane damage in Staphylococcus aureus 209P assessed as crystal violet absorption at 1.5 uM after 30 mins by crystal violet staining based microplate reader analysis (reference value: […] %); assay type: subcellular
[43] = system: MCF7; test: Induction of mitochondrial membrane potential loss in human MCF7 cells assessed as cell population with intact mitochondrial membrane potential at 10 uM after 24 hrs by JC-10 staining-based flow cytometric analysis (reference value: 98.73 %); assay type: functional
[44] = system: Staphylococcus aureus; test: Bacteriostatic activity against Staphylococcus aureus MRSA-1 measured every 24 hrs for 5 days by serial dilution method; assay type: functional, organism-based
[45] = system: MCF7; test: Induction of apoptosis in human MCF7 cells assessed as activation of Akt at 5 uM after 24 hrs by fluorescence assay; assay type: functional, cell-based
[46] = system: MCF7; test: Induction of apoptosis in human MCF7 cells assessed as dead cells at 10 uM after 24 hrs by annexin V-FITC and propidium iodide staining based flow cytometry (reference value: 0.15 %); assay type: functional
[47] = Selectivity index, ratio of IC50 for human WI-38 cells to IC50 for human HepG2 cells; assay type: toxicity; settings: WI-38 cells versus HepG2 cells, read-out: Ratio IC50
[48] = system: MCF7; test: Induction of mitochondrial membrane potential loss in human MCF7 cells assessed as cell population with mitochondrial membrane potential collapse at 5 uM after 24 hrs by JC-10 staining-based flow cytometric analysis (reference value: 1.05 %); assay type: functional
[49] = system: MCF7; test: Induction of mitochondrial membrane potential loss in human MCF7 cells assessed as cell population with intact mitochondrial membrane potential at 5 uM after 24 hrs by JC-10 staining-based flow cytometric analysis (reference value: 98.73 %); assay type: functional
[50] = system: MCF7; test: Induction of apoptosis in human MCF7 cells assessed as dead cells at 5 uM after 24 hrs by annexin V-FITC and propidium iodide staining based flow cytometry (reference value: 0.15 %); assay type: functional
[51] = system: Staphylococcus aureus; test: Antibacterial activity against Staphylococcus aureus 209P assessed as bacterial growth inhibition in Mueller-Hinton broth 2 measured every 24 hrs for 5 days by serial dilution method; assay type: functional; settings: 120 h, time 5 day

C[C@@]12CC[C@@H]3[C@@](CC[C@H]4[C@@]3(C)CCC[C@@]4(C)C(=O)OCC[N+](C)(C)Cc3ccccc3)(CC1=O)C2
MIC [1]: 112 µM
MIC [2]: 223 µM
IC50 [3]: > 100 µM
IC50 [4]: > 100 µM
IC50 [5]: > 100 µM
IC50 [6]: > 100 µM
MBC [7]: 223 µM
HC50 at 1 h [8]: > 100 µM
MBC [9]: 55.8 µM
MIC [10]: 55.8 µM
IC50 [11]: > 100 µM
MBC [12]: 112 µM
IC50 [13]: > 100 µM
IC50 [14]: > 100 µM

C[C@@]12CC[C@@H]3[C@@](CC[C@H]4[C@@]3(C)CCC[C@@]4(C)C(=O)OCC[N+](C)(C)CCCCCCCCCCCC[N+](C)(C)CCOC(=O)[C@]3(C)CCC[C@@]4(C)[C@@H]5CC[C@@]6(C)C[C@]5(CC[C@@H]43)CC6=O)(CC1=O)C2.[Br-].[Br-]
MIC [1]: 1.4 µM
viability at 10 µM [15]: 24.9%
MIC [2]: 2.8 µM
IC50 [3]: 13 µM
selectivity ratio [16]: 1.9
Activity [17]: 27.59%
IC50 [4]: 12.5 µM
viability at 5 µM [18]: 29.9%
selectivity ratio [19]: 1.1
Activity [20]: 25.95%
Activity [21]: 92.1%
Activity [22]: 28.47%
IC50 [5]: 19.5 µM
Activity [23]: inactive
Activity [24]: inactive
IC50 [6]: 22 µM
selectivity ratio [25]: 5
fold change (FC) [26]: 15
Activity [27]: 41.39%
Activity [28]: Active
Activity [29]: Active
Activity [30]: Active
MBC [7]: 2.8 µM
selectivity ratio [31]: 2
Activity [32]: Active
Activity [33]: Active
Activity [34]: Active
fold change (FC) [35]: >=2
selectivity ratio [36]: 0.6
HC50 at 1 h [8]: 20.3 µM
Activity [37]: 63%
MBC [9]: 0.7 µM
Activity [38]: Active
Activity [39]: 7%
MIC [10]: 0.7 µM
Activity [40]: 24%
Activity [41]: Active
Activity [42]: 13%
IC50 [11]: 39.6 µM
MBC [12]: 1.4 µM
Activity [43]: 7.76%
IC50 [13]: 25 µM
Activity [44]: Active
Activity [45]: Active
Activity [46]: 5.24%
selectivity ratio [47]: 1.3
Activity [48]: 11.65%
Activity [49]: 88.28%
IC50 [14]: 5 µM
Activity [50]: 16.61%

O=C(O)c1cn(C2CC2)c2cc(N3CCNCC3)c(F)cc2c1=O [CIPROFLOXACIN]
MIC [1]: 2.7 µM (≈ 0.895 µg/mL)
MIC [2]: 377 µM (≈ 125 µg/mL)
MIC [51]: 1.5 µM (≈ 0.497 µg/mL)
MBC [7]: 755 µM (≈ 250 µg/mL)
MBC [9]: 1.5 µM (≈ 0.497 µg/mL)
MBC [12]: 2.7 µM (≈ 0.895 µg/mL)

CC1(C)S[C@@H]2[C@H](NC(=O)[C@H](N)c3ccc(O)cc3)C(=O)N2[C@H]1C(=O)O [AMOXICILLIN]
MIC [1]: 85.7 µM (≈ 31.3 µg/mL)
MIC [2]: 85.7 µM (≈ 31.3 µg/mL)
MIC [51]: 0.7 µM (≈ 0.256 µg/mL)
MBC [7]: 85.7 µM (≈ 31.3 µg/mL)
MBC [9]: 2.5 µM (≈ 0.914 µg/mL)
MBC [12]: 85.7 µM (≈ 31.3 µg/mL)

CC(C)C[C@@H]1NC(=O)[C@H](CCCN)NC(=O)[C@H](C(C)C)NC(=O)[C@@H]2CCCN2C(=O)[C@@H](Cc2ccccc2)NC(=O)[C@H](CC(C)C)NC(=O)[C@H](CCCN)NC(=O)[C@H](C(C)C)NC(=O)[C@@H]2CCCN2C(=O)[C@@H](Cc2ccccc2)NC1=O [GRAMICIDIN S] (cyclo(L[dF]PV[Orn]L[dF]PV[Orn]))
HC50 at 1 h [8]: 9.4 µM
